This note sets out measurements from patent US20240238424A1, “HETEROBIFUNCTIONAL COMPOUNDS AND METHODS OF TREATING DISEASE” (Halda Therapeutics OpCo, Inc., priority 2021, published 2024).

One assay has as its target T1, GSPT1 (Homo sapiens, UniProt P15170+Q96SW2).
T1 construct: host or cells: HEK293 LgBiT cell line
The assay can be described thus: GSPT1 HiBit degradation assay. The settings on record: HEK293 LgBiT cells expressing GSPT1_HiBiT, luminescence after 6 hours. It is filed as cell-based. In a few lines:
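Degradation readout is luminescence at 6 h, with DC50 taken as the concentration giving 50% GSPT1 loss. Compound titrations were added together with endurazine (0.5× final) to HEK293 LgBiT/GSPT1-HiBiT cells seeded the day before and kept at 37 °C.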
In general terms: With HiBiT, luminescence reflects the tagged protein that the partner subunit can reach.

The test system of another assay is HeLa KRas G12C cells. Briefly: Cellular growth inhibition assay (CTG), HeLa KRas G12C cells. Type of assay: cell-based. Particulars: Homo sapiens, CellTiter-Glo 2.0, day-5. The procedure: Cells were seeded in Poly-D-lysine-treated 384-well white plates, with 25 μL cell suspension at 250 cells/well for continuous treatments, and 1000 cells/well for washout treatments. Plates were spun at 300×g for 3 minutes, and cells were cultured at 37° C. with 5% CO2 in a humidified tissue culture incubator.
After 24 hours, the test compounds were diluted with cell culture medium in 96 deep well plates. DMSO was used as a negative control. A 25 μL aliquot of compound-containing medium was added in each well, at a final top concentration of 10 μM or 30 μM test compound, with 3-fold dilutions. For washout assays, after 4 hours, cell medium with compound was removed, and the cells were washed with 75p L fresh medium. Plates were then spun at 300×g for 3 minutes and replaced with 50 μL fresh medium in each well. Plates were then spun at 300×g for 3 minutes again and cultured at 37° C. with 5% CO2.
At day-0 and day-5 of compound treatments, cell viability was quantified with CellTiter-Glo 2.0 (Promega). After equilibrating cell plates at room temperature for 30 minutes, 25 μL CellTiter-Glo 2.0 reagent was dispensed into each well (on top of 50 μL of cell culture). Plates were mixed on a shaker for 2 minutes at 500 rpm, followed by a 10-minute incubation at room temperature. Luminescence readings were measured with an EnVision Plate Reader. Data was normalized to DMSO treated day-0 cell wells. A four-parameter non-linear regression curve fit was applied to dose-response data in Prism to determine the half maximal growth inhibitory concentration (GI50) of each compound.

T1 sequence (P15170 whole entry): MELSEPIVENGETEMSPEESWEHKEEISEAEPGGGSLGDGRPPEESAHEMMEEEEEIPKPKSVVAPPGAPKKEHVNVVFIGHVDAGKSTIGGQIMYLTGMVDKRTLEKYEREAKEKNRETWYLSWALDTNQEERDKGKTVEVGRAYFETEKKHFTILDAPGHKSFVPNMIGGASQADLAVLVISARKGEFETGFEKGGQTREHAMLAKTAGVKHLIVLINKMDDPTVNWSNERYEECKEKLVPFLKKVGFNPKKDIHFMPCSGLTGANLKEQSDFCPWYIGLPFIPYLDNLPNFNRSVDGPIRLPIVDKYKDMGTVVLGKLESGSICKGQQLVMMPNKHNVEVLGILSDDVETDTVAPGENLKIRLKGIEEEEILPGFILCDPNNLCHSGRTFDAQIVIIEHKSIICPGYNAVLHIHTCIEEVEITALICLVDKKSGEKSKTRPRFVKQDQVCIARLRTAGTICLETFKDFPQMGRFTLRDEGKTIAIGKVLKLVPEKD
T1 sequence (Q96SW2 whole entry): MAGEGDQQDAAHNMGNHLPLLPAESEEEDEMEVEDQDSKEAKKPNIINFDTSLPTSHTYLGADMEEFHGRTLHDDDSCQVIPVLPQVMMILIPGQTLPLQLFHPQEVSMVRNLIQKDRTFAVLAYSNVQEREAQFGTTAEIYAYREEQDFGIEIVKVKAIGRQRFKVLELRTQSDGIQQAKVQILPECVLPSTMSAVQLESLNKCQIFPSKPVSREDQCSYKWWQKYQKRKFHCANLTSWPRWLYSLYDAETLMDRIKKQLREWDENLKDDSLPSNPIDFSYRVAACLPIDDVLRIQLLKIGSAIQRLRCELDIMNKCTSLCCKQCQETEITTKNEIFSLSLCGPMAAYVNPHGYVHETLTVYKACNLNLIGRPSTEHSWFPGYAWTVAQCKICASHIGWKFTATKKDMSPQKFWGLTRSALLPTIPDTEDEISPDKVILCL
T1 sequence (Q16531 whole entry partner): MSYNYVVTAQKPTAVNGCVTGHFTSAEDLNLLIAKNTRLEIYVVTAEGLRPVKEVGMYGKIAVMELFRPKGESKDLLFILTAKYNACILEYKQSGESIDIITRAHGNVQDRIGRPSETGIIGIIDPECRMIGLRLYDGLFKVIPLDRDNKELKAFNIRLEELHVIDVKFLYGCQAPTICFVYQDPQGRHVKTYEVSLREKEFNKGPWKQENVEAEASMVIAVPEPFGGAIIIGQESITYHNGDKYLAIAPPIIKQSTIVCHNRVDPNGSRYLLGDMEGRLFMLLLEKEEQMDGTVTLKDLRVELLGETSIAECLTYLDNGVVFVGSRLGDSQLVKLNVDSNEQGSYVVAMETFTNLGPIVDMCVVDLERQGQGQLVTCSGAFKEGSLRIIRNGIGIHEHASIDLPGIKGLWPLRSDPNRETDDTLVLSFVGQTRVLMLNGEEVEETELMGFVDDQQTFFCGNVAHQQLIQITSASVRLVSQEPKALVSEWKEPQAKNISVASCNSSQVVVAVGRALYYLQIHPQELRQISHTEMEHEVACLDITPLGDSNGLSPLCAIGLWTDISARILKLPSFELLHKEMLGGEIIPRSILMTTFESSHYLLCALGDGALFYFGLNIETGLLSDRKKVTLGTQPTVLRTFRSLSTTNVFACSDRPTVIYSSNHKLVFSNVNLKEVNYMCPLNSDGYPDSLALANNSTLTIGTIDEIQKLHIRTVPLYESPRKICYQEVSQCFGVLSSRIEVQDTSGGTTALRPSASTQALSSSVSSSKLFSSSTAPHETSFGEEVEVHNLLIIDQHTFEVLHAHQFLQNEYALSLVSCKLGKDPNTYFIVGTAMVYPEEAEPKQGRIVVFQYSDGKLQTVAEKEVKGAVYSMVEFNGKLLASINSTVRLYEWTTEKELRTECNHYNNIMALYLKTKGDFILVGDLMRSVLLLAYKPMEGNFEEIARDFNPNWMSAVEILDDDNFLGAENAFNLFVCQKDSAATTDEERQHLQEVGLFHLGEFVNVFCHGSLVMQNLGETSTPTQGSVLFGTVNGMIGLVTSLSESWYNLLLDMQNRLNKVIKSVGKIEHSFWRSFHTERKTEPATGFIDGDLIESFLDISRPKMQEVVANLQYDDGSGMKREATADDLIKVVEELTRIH

`C=C(F)C(=O)N1CCN(c2nc(OC[C@@H]3CCCN3CCOCCOCCOCCOCCOCCOCCOCCOCCc3cc(Cl)cc(NC(=O)NCc4ccc5c(c4)CN(C4CCC(=O)NC4=O)C5=O)c3)nc3c2CCN(c2cccc4cccc(Cl)c24)C3)C[C@@H]1CC#N` (stereo partly drawn) [Compound I-11, 1-[3-chloro-5-[2-[2-[2-[2-[2-[2-[2-[2-[2-[(2S)-2-[[7-(8-chloro-1-naphthyl)-4-[(3S)-3-(cyanomethyl)-4-(2-fluoroprop-2-enoyl)piperazin-1-yl]-6,8-dihydro-5H-pyrido[3,4-d]pyrimidin-2-yl]oxymethyl]pyrrolidin-1-yl]ethoxy]ethoxy]ethoxy]ethoxy]ethoxy]ethoxy]ethoxy]ethoxy]ethyl]phenyl]-3-[[2-(2,6-dioxo-3-piperidyl)-1-oxo-isoindolin-5-yl]methyl]urea]: the 50% degradation concentration (DC50) (usually the concentration giving 50% degradation) at GSPT1 (Table 3) was greater than 10 µM. In addition, the GI50 – broadly, the concentration giving 50% growth inhibition – with HeLa KRas G12C cells is greater than 10 µM.

At GSPT1 (Table 3A), `C=C(F)C(=O)N1CCN(c2nc(OC[C@@H]3CCCN3CCCOCCOCCOCCOCCOCCOCCOCCCCCc3cccc(NC(=O)NCc4ccc5c(c4)CN(C4CCC(=O)NC4=O)C5=O)n3)nc3c2CCN(c2cccc4cccc(Cl)c24)C3)C[C@@H]1CC#N` (stereo partly shown) [Compound I-147] came in with a 50% degradation concentration (DC50) of 5 to 10 µM. For the same molecule, the GI50 in the assay with HeLa KRas G12C cells was in the range of 3 to 10 µM.

For `C=C(F)C(=O)N1CCN(c2nc(OC[C@@H]3CCCN3CCOCCOCCOCCOCCOCCOCCOCCOCCOCCOCCOCCOCCCCCCCCc3cc(Cl)cc(NC(=O)NCc4ccc5c(c4)CN(C4CCC(=O)NC4=O)C5=O)c3)nc3c2CCN(c2cccc4cccc(Cl)c24)C3)C[C@@H]1CC#N` (stereo partly shown) [Compound I-46], the DC50 at GSPT1 (Table 3) was less than 0.25 µM. The molecule also yielded a GI50 in the assay with HeLa KRas G12C cells of less than 1 µM.

Take `C=CC(=O)N1CCN(c2nc(NCCOCCOCCOCCOCCOCCOCCc3cc(Cl)cc(NC(=O)NCc4ccc5c(c4)CN(C4CCC(=O)NC4=O)C5=O)c3)nc3c(F)c(-c4cc(O)cc5ccccc45)c(Cl)cc23)CC1` (stereo not shown) [Compound I-7, 1-[3-chloro-5-[2-[2-[2-[2-[2-[2-[2-[[6-chloro-8-fluoro-7-(3-hydroxy-1-naphthyl)-4-(4-prop-2-enoylpiperazin-1-yl)quinazolin-2-yl]amino]ethoxy]ethoxy]ethoxy]ethoxy]ethoxy]ethoxy]ethyl]phenyl]-3-[[2-(2,6-dioxo-3-piperidyl)-1-oxo-isoindolin-5-yl]methyl]urea]: the half-maximal degradation concentration (DC50) at GSPT1 (Table 3) was in the range of 5 to 10 µM. For the same molecule, in the assay with HeLa KRas G12C cells, the concentration for 50% growth inhibition (GI50) was greater than 10 µM.

As for `C=CC(=O)N1CCN(c2nc(NCCCCCCCCc3cccc4c3CN(C3CCC(=O)NC3=O)C4=O)nc3c(F)c(-c4cc(O)cc5ccccc45)c(Cl)cc23)CC1` (stereo not shown) [Compound I-8, 3-(4-(8-((4-(4-acryloylpiperazin-1-yl)-6-chloro-8-fluoro-7-(3-hydroxynaphthalen-1-yl)quinazolin-2-yl)amino)octyl)-1-oxoisoindolin-2-yl)piperidine-2,6-dione], the DC50 on GSPT1 (Table 3) was greater than 10 µM. In the assay on HeLa KRas G12C cells, this molecule registered a GI50 greater than 10 µM.

`C=C(F)C(=O)N1CCN(c2nc(OC[C@@H]3CCCN3CCOCCOCCOCCOCCOCCOCCOCCOCCOc3cc(Cl)cc(NC(=O)NCc4ccc5c(c4)CN(C4CCC(=O)NC4=O)C5=O)c3)nc3c2CCN(c2cccc4cccc(Cl)c24)C3)C[C@@H]1CC#N` (stereo partly drawn) [Compound I-9, 1-[3-chloro-5-[2-[2-[2-[2-[2-[2-[2-[2-[2-[(2S)-2-[[7-(8-chloro-1-naphthyl)-4-[(3S)-3-(cyanomethyl)-4-(2-fluoroprop-2-enoyl)piperazin-1-yl]-6,8-dihydro-5H-pyrido[3,4-d]pyrimidin-2-yl]oxymethyl]pyrrolidin-1-yl]ethoxy]ethoxy]ethoxy]ethoxy]ethoxy]ethoxy]ethoxy]ethoxy]ethoxy]phenyl]-3-[[2-(2,6-dioxo-3-piperidyl)-1-oxo-isoindolin-5-yl]methyl]urea] came in with a DC50 on GSPT1 (Table 3) greater than 10 µM. In the assay on HeLa KRas G12C cells, this molecule registered a 50% growth inhibitory concentration (GI50) greater than 10 µM.

Regarding `C=C(F)C(=O)N1CCN(c2nc(OC[C@@H]3CCCN3CCOCCOCCOCCOCCOCCOCCOCCCCCc3cc(Cl)cc(NC(=O)NCc4ccc5c(c4)CN(C4CCC(=O)NC4=O)C5=O)c3)nc3c2CCN(c2cccc4cccc(Cl)c24)C3)C[C@@H]1CC#N` (stereo partly shown) [Compound I-43], the DC50 at GSPT1 (Table 3) is 0.25 to 5 µM. Moreover, in the assay with HeLa KRas G12C cells, the GI50 lay in the range of 1 to 3 µM.

As to `C=CC(=O)N1CCN(c2nc(NCCC(=O)N(C)CCOCCOCCOCCOCCOCCOCCOCCOCCc3cc(Cl)cc(NC(=O)NCc4ccc5c(c4)CN(C4CCC(=O)NC4=O)C5=O)c3)nc3c(F)c(-c4cc(O)cc5ccccc45)c(Cl)cc23)CC1` (stereo not shown) [Compound I-18, N-[2-[2-[2-[2-[2-[2-[2-[2-[2-[3-chloro-5-[[2-(2,6-dioxo-3-piperidyl)-1-oxo-isoindolin-5-yl]methylcarbamoylamino]phenyl]ethoxy]ethoxy]ethoxy]ethoxy]ethoxy]ethoxy]ethoxy]ethoxy]ethyl]-3-[[6-chloro-8-fluoro-7-(3-hydroxy-1-naphthyl)-4-(4-prop-2-enoylpiperazin-1-yl)quinazolin-2-yl]amino]-N-methyl-propanamide], the 50% degradation concentration (DC50) on GSPT1 (Table 3) was greater than 10 µM. Moreover, in the assay on HeLa KRas G12C cells, the GI50 was greater than 10 µM.

As for `C=C(F)C(=O)N1CCN(c2nc(OC[C@H]3CCCN3CCOCCOCCOCCOCCOCCOCCOCCOCCOCCOCCCCCCCCc3cc(Cl)cc(NC(=O)NCc4ccc5c(c4)CN(C4CCC(=O)NC4=O)C5=O)c3)nc3c2CCN(c2cccc4cccc(Cl)c24)C3)C[C@H]1CC#N` (stereo partly shown) [Compound I-39], the DC50 on GSPT1 (Table 3) is less than 0.25 µM. The same molecule had a GI50 in the assay with HeLa KRas G12C cells of less than 1 µM.

On to `C=C(F)C(=O)N1CCN(c2nc(OC[C@@H]3CCCN3CCOCCOCCOCCOCCOCCOCCCCCCCCCCCCCCc3cc(Cl)cc(NC(=O)NCc4ccc5c(c4)CN(C4CCC(=O)NC4=O)C5=O)c3)nc3c2CCN(c2cccc4cccc(Cl)c24)C3)C[C@@H]1CC#N` (stereo partly shown) [Compound I-50], for which, on GSPT1 (Table 3), the 50% degradation concentration (DC50) is 0.25 to 5 µM. The molecule further had a concentration for 50% growth inhibition (GI50) in the assay with HeLa KRas G12C cells of less than 1 µM.

On GSPT1 (Table 3), `C=C(F)C(=O)N1CCN(c2nc(OC[C@@H]3CCCN3CCOCCOCCOCCOCCOCCOCCCCCCCCc3cc(Cl)cc(NC(=O)NCc4ccc5c(c4)CN(C4CCC(=O)NC4=O)C5=O)c3)nc3c2CCN(c2cccc4cccc(Cl)c24)C3)C[C@@H]1CC#N` (stereo partly shown) [Compound I-41] showed a half-maximal degradation concentration (DC50) of less than 0.25 µM. Moreover, the GI50 in the assay on HeLa KRas G12C cells was less than 1 µM.

Molecule `C=C(F)C(=O)N1CCN(c2nc(OC[C@@H]3CCCN3CCOCCOCCOCCOCCOCCOCCOCCOCCOCCCCCc3cc(Cl)cc(NC(=O)NCc4ccc5c(c4)CN(C4CCC(=O)NC4=O)C5=O)c3)nc3c2CCN(c2cccc4cccc(Cl)c24)C3)C[C@@H]1CC#N` (stereo partly shown) [Compound I-44] showed a DC50 on GSPT1 (Table 3) of 0.25 to 5 µM. In the assay with HeLa KRas G12C cells, this molecule returned a GI50 of 1 to 3 µM.

At GSPT1 (Table 3), `C=C(F)C(=O)N1CCN(c2nc(OC[C@@H]3CCCN3CCOCCOCCCCCCCCCCCCCCc3cc(Cl)cc(NC(=O)NCc4ccc5c(c4)CN(C4CCC(=O)NC4=O)C5=O)c3)nc3c2CCN(c2cccc4cccc(Cl)c24)C3)C[C@@H]1CC#N` (stereo partly shown) [Compound I-48] displayed a 50% degradation concentration (DC50) of 0.25 to 5 µM. The same molecule registered a GI50 in the assay on HeLa KRas G12C cells of 3 to 10 µM.

Turning to `C=C(F)C(=O)N1CCN(c2nc(OC[C@@H]3CCCN3CCCCCCCCc3cc(Cl)cc(NC(=O)NCc4ccc5c(c4)CN(C4CCC(=O)NC4=O)C5=O)c3)nc3c2CCN(c2cccc4cccc(Cl)c24)C3)C[C@@H]1CC#N` (stereo partly drawn) [Compound I-1, 1-[3-chloro-5-[8-[(2S)-2-[[7-(8-chloro-1-naphthyl)-4-[(3S)-3-(cyanomethyl)-4-(2-fluoroprop-2-enoyl)piperazin-1-yl]-6,8-dihydro-5H-pyrido[3,4-d]pyrimidin-2-yl]oxymethyl]pyrrolidin-1-yl]octyl]phenyl]-3-[[2-(2,6-dioxo-3-piperidyl)-1-oxo-isoindolin-5-yl]methyl]urea], on GSPT1 (Table 3), the half-maximal degradation concentration (DC50) lay in the range of 0.25 to 5 µM. Besides, the GI50 in the assay on HeLa KRas G12C cells fell in the range of 1 to 3 µM.
